Assay results as given in the supplement of paper PMC10307832.

Legend:
Assay in all cases: relative viability (nuclei count vs DMSO), 5 days (fraction); higher = more cells survive
Entinostat + OSI-027 = compound: Nc1ccccc1NC(=O)c1ccc(CNC(=O)OCc2cccnc2)cc1 [Entinostat] + COc1cccc2cc(-c3nc([C@H]4CC[C@H](C(=O)O)CC4)n4ncnc(N)c34)[nH]c12 [OSI-027] (partner 0.5 µM)
Outline: (§1)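 A single step with final 0.05% Triton X-100, 1% formaldehyde and 1 ug/ml Hoechst fixed the cells and stained nuclei 5 days after treatment. Lung cancer cell lines in 1536-well plates had been treated by pin tool the day after seeding with one drug alone or a fixed anchor-drug dose plus five library-drug doses (not always all listed) in √10 steps, and nuclei were counted on 4× images. Relative viability is the ratio of nuclei in treated wells to nuclei in vehicle wells, taken as the median of duplicate plates.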

Entinostat + AZD7762 = compound: Nc1ccccc1NC(=O)c1ccc(CNC(=O)OCc2cccnc2)cc1 [Entinostat] + NC(=O)Nc1cc(-c2cccc(F)c2)sc1C(=O)N[C@H]1CCCNC1 [AZD7762] (partner 0.2 µM)
Outline: as §1

Entinostat + Pemetrexed = compound: Nc1ccccc1NC(=O)c1ccc(CNC(=O)OCc2cccnc2)cc1 [Entinostat] + Nc1nc2[nH]cc(CCc3ccc(C(=O)N[C@@H](CCC(=O)O)C(=O)O)cc3)c2c(=O)[nH]1 [Pemetrexed] (partner 0.2 µM)
Outline: as §1

SGI-1776 + Linsitinib = compound: CN1CCC(CNc2ccc3ncc(-c4cccc(OC(F)(F)F)c4)n3n2)CC1 [SGI-1776] + C[C@]1(O)C[C@@H](c2nc(-c3ccc4ccc(-c5ccccc5)nc4c3)c3c(N)nccn32)C1 [Linsitinib] (partner 1 µM)
Outline: as §1

Cell Line	relative viability (Entinostat + OSI-027; first compound 0.02 µM)	relative viability (Entinostat + OSI-027; first compound 0.06325 µM)	relative viability (Entinostat + OSI-027; first compound 0.2 µM)	relative viability (Entinostat + OSI-027; first compound 0.6325 µM)	relative viability (Entinostat + OSI-027; first compound 2 µM)	relative viability (Entinostat + AZD7762; first compound 0.02 µM)	relative viability (Entinostat + AZD7762; first compound 0.06325 µM)	relative viability (Entinostat + AZD7762; first compound 0.2 µM)	relative viability (Entinostat + AZD7762; first compound 0.6325 µM)	relative viability (Entinostat + AZD7762; first compound 2 µM)	relative viability (Entinostat + Pemetrexed; first compound 0.02 µM)	relative viability (Entinostat + Pemetrexed; first compound 0.06325 µM)	relative viability (Entinostat + Pemetrexed; first compound 0.2 µM)	relative viability (Entinostat + Pemetrexed; first compound 0.6325 µM)	relative viability (Entinostat + Pemetrexed; first compound 2 µM)	relative viability (SGI-1776 + Linsitinib; first compound 0.08 µM)	relative viability (SGI-1776 + Linsitinib; first compound 0.8 µM)	relative viability (SGI-1776 + Linsitinib; first compound 2.53 µM)	relative viability (SGI-1776 + Linsitinib; first compound 8 µM)
SW 900	0.696	0.659	0.647	0.319	0.397	0.723	0.699	0.726	0.488	0.268	0.529	0.51	0.448	0.489	0.43	–	–	–	–
NCI-H1944	0.382	0.404	0.362	0.233	0.208	0.413	0.463	0.394	0.259	0.238	0.498	0.576	0.465	0.244	0.22	1.15	1.31	1.21	1.05
NCI-H838	0.46	0.489	0.474	0.487	0.318	0.993	0.973	0.814	0.917	0.712	0.231	0.222	0.268	0.247	0.183	1.03	0.982	1.02	0.684
NCI-H1651	0.747	0.653	0.71	0.608	0.542	0.452	0.48	0.377	0.394	0.245	0.715	0.777	0.655	0.639	0.435	1.01	0.925	0.938	0.566
HCC-827	0.713	0.749	0.688	0.402	0.292	0.247	0.244	0.159	0.203	0.159	0.268	0.265	0.227	0.229	0.187	0.961	0.978	0.952	0.875
HCC-366	0.922	0.972	0.854	0.214	0.0783	0.262	0.29	0.272	0.107	0.121	0.185	0.141	0.159	0.0978	0.0735	0.731	0.697	0.633	0.413
HARA	0.448	0.529	0.551	0.299	0.194	0.37	0.229	0.34	0.215	0.244	0.233	0.22	0.31	0.257	0.247	1.11	0.921	0.909	0.945
NCI-H441	0.592	0.562	0.592	0.308	0.233	1.05	0.883	0.715	0.281	0.196	0.287	0.29	0.255	0.227	0.166	0.506	0.588	0.645	0.354
NCI-H1299	–	–	–	–	–	–	–	–	–	–	–	–	–	–	–	1.02	0.972	0.966	0.921
RERF-LC-KJ	0.582	0.591	0.6	0.326	0.264	1.12	1.07	0.748	0.707	0.329	0.494	0.486	0.474	0.408	0.319	0.909	0.877	0.9	0.711
CAL-12T	0.583	0.719	0.698	0.601	0.305	0.775	0.578	0.67	0.642	0.464	1.17	1.09	1.49	1.21	0.676	0.916	0.821	0.821	0.756
COR-L 105	0.735	0.875	0.977	0.688	0.297	–	–	–	–	–	1.12	1.23	1.12	0.816	0.56	1.1	0.927	0.874	0.717
NCI-H2405	0.574	0.652	0.582	0.567	0.414	0.795	0.896	0.704	0.641	0.495	1.06	1.22	1.02	0.978	0.667	0.899	0.873	0.854	0.588
NCI-H2228	0.695	0.595	0.416	0.266	0.208	–	–	–	–	–	0.316	0.399	0.323	0.271	0.172	0.881	0.541	0.557	0.276
PC-14	0.814	0.829	0.779	0.235	0.0869	0.577	0.364	0.397	0.165	0.0725	0.137	0.163	0.139	0.198	0.146	1.06	0.965	0.938	0.802
IA-LM	–	–	–	–	–	–	–	–	–	–	–	–	–	–	–	0.732	0.603	0.593	0.692
A549	–	–	–	–	–	–	–	–	–	–	–	–	–	–	–	0.672	0.574	0.518	0.48
NCI-H2342	0.651	0.587	0.629	0.598	0.524	0.514	0.569	0.507	0.428	0.398	0.811	0.849	0.708	0.638	0.668	–	–	–	–
NCI-H1623	0.445	0.565	0.429	0.298	0.339	–	–	–	–	–	–	–	–	–	–	–	–	–	–
SW 1573	0.639	0.832	0.617	0.598	0.54	–	–	–	–	–	0.806	0.88	1.08	0.966	0.452	0.94	0.777	0.765	0.741
NCI-H2087	0.666	0.509	0.376	0.27	0.213	1.22	0.975	1.04	1.03	0.355	0.68	0.581	0.67	0.613	0.304	0.913	0.863	1.09	1.12
